Experimental data taken from PubChem BioAssay AID2060909 (Molecular Pharmacology Branch, DTP, NCI, 2025).

Tested on: 362531-283-R-J2-PDC complex spheroid viability
Test: Anticancer human tumor 362531-283-R-J2-PDC patient-derived colon adenocarcinoma cell line growth inhibition [RAS]
Conditions: for IC50: curve of first compound; for viability, T/C: stronger effect = lower value; active = viability on the fitted dose curve at most 10% of control; inactive = the rest
Outline: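 Tumour cells grown as complex spheroids with HUVEC endothelial cells and mesenchymal stem cells, treated with RAS pathway inhibitor combinations. Each agent spans half-log steps from near clinical Cmax, or 10 microM where Cmax is unknown.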
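Also: spheroids exposed to the agents for 7 days before readout.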
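For viability, T/C in this document: luminescence viability as percent of DMSO vehicle control wells.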

CCc1c2c(nc3ccc(O)cc13)-c1cc3c(c(=O)n1C2)COC(=O)[C@]3(O)CC + C#Cc1c(F)ccc2cc(O)cc(-c3ncc4c(N5CC6CCC(C5)N6)nc(OCC56CCCN5CC(F)C6)nc4c3F)c12
16.6 nM: IC50 (second compound 0.316 µM)
active: viability, T/C (second compound 10 µM, first compound 0.3 µM) 8.32%
2.45 nM: IC50 (second compound 3.16 µM)
11.4 nM: IC50 (second compound 1 µM)
< 0.949 nM: IC50 (second compound 10 µM)
22.4 nM: IC50 (second compound 0.1 µM)
inactive: viability, T/C (second compound 0.0316 µM, first compound 0.000949 µM) 95.2% | viability, T/C (second compound 0.0316 µM, first compound 0.003 µM) 91.8% | viability, T/C (second compound 0.0316 µM, first compound 0.00949 µM) 71.5% | viability, T/C (second compound 0.0316 µM, first compound 0.03 µM) 60.6% | viability, T/C (second compound 0.0316 µM, first compound 0.0949 µM) 32.3% | viability, T/C (second compound 0.0316 µM, first compound 0.3 µM) 18% | viability, T/C (second compound 0.1 µM, first compound 0.000949 µM) 92.7% | viability, T/C (second compound 0.1 µM, first compound 0.003 µM) 85.8% | viability, T/C (second compound 0.1 µM, first compound 0.00949 µM) 64.3% | viability, T/C (second compound 0.1 µM, first compound 0.03 µM) 47.2% | viability, T/C (second compound 0.1 µM, first compound 0.0949 µM) 25.3% | viability, T/C (second compound 0.1 µM, first compound 0.3 µM) 21.2% | viability, T/C (second compound 0.316 µM, first compound 0.000949 µM) 84.9% | viability, T/C (second compound 0.316 µM, first compound 0.003 µM) 84.3% | viability, T/C (second compound 0.316 µM, first compound 0.00949 µM) 57.7% | viability, T/C (second compound 0.316 µM, first compound 0.03 µM) 40.5% | viability, T/C (second compound 0.316 µM, first compound 0.0949 µM) 18.2% | viability, T/C (second compound 0.316 µM, first compound 0.3 µM) 13.9% | viability, T/C (second compound 1 µM, first compound 0.000949 µM) 72.7% | viability, T/C (second compound 1 µM, first compound 0.003 µM) 76% | viability, T/C (second compound 1 µM, first compound 0.00949 µM) 51.2% | viability, T/C (second compound 1 µM, first compound 0.03 µM) 30.2% | viability, T/C (second compound 1 µM, first compound 0.0949 µM) 18.5% | viability, T/C (second compound 1 µM, first compound 0.3 µM) 12.1% | viability, T/C (second compound 3.16 µM, first compound 0.000949 µM) 58.2% | viability, T/C (second compound 3.16 µM, first compound 0.003 µM) 50.5% | viability, T/C (second compound 3.16 µM, first compound 0.00949 µM) 29% | viability, T/C (second compound 3.16 µM, first compound 0.03 µM) 19.8% | viability, T/C (second compound 3.16 µM, first compound 0.0949 µM) 16.1% | viability, T/C (second compound 3.16 µM, first compound 0.3 µM) 7.69% | viability, T/C (second compound 10 µM, first compound 0.000949 µM) 39.3% | viability, T/C (second compound 10 µM, first compound 0.003 µM) 26.9% | viability, T/C (second compound 10 µM, first compound 0.00949 µM) 18.8% | viability, T/C (second compound 10 µM, first compound 0.03 µM) 16.2% | viability, T/C (second compound 10 µM, first compound 0.0949 µM) 12.3%
42.2 nM: IC50 (second compound 0.0316 µM)

Nc1ccn(C2OC(CO)C(O)C2(F)F)c(=O)n1 (centres undefined) + C#Cc1c(F)ccc2cc(O)cc(-c3ncc4c(N5CC6CCC(C5)N6)nc(OCC56CCCN5CC(F)C6)nc4c3F)c12
57.6 nM: IC50 (second compound 3.16 µM)
< 3.16 nM: IC50 (second compound 10 µM)
164 nM: IC50 (second compound 0.1 µM)
inactive: viability, T/C (second compound 0.0316 µM, first compound 0.00316 µM) 101% | viability, T/C (second compound 0.0316 µM, first compound 0.01 µM) 104% | viability, T/C (second compound 0.0316 µM, first compound 0.0316 µM) 81% | viability, T/C (second compound 0.0316 µM, first compound 0.1 µM) 72.6% | viability, T/C (second compound 0.0316 µM, first compound 0.316 µM) 20.5% | viability, T/C (second compound 0.0316 µM, first compound 1 µM) 26.8% | viability, T/C (second compound 0.1 µM, first compound 0.00316 µM) 104% | viability, T/C (second compound 0.1 µM, first compound 0.01 µM) 97.1% | viability, T/C (second compound 0.1 µM, first compound 0.0316 µM) 85.5% | viability, T/C (second compound 0.1 µM, first compound 0.1 µM) 72.6% | viability, T/C (second compound 0.1 µM, first compound 0.316 µM) 15.2% | viability, T/C (second compound 0.1 µM, first compound 1 µM) 24.4% | viability, T/C (second compound 0.316 µM, first compound 0.00316 µM) 92.5% | viability, T/C (second compound 0.316 µM, first compound 0.01 µM) 92.4% | viability, T/C (second compound 0.316 µM, first compound 0.0316 µM) 84.1% | viability, T/C (second compound 0.316 µM, first compound 0.1 µM) 56.4% | viability, T/C (second compound 0.316 µM, first compound 0.316 µM) 16.5% | viability, T/C (second compound 0.316 µM, first compound 1 µM) 17.5% | viability, T/C (second compound 1 µM, first compound 0.00316 µM) 76.9% | viability, T/C (second compound 1 µM, first compound 0.01 µM) 79.5% | viability, T/C (second compound 1 µM, first compound 0.0316 µM) 66.8% | viability, T/C (second compound 1 µM, first compound 0.1 µM) 45.5% | viability, T/C (second compound 1 µM, first compound 0.316 µM) 13.8% | viability, T/C (second compound 1 µM, first compound 1 µM) 17.5% | viability, T/C (second compound 3.16 µM, first compound 0.00316 µM) 61.1% | viability, T/C (second compound 3.16 µM, first compound 0.01 µM) 62.6% | viability, T/C (second compound 3.16 µM, first compound 0.0316 µM) 61.3% | viability, T/C (second compound 3.16 µM, first compound 0.1 µM) 39.9% | viability, T/C (second compound 3.16 µM, first compound 0.316 µM) 14.8% | viability, T/C (second compound 3.16 µM, first compound 1 µM) 12.8% | viability, T/C (second compound 10 µM, first compound 0.00316 µM) 54.7% | viability, T/C (second compound 10 µM, first compound 0.01 µM) 45.1% | viability, T/C (second compound 10 µM, first compound 0.0316 µM) 41.7% | viability, T/C (second compound 10 µM, first compound 0.1 µM) 15.1% | viability, T/C (second compound 10 µM, first compound 0.316 µM) 18.1% | viability, T/C (second compound 10 µM, first compound 1 µM) 16.2%
118 nM: IC50 (second compound 0.316 µM)
74.4 nM: IC50 (second compound 1 µM)
170 nM: IC50 (second compound 0.0316 µM)
